Data published in patent US12553037B2, “Engineered class 2, type V repressor systems” (Scribe Therapeutics Inc., priority 2021, dated 2026).

Test system: B2M gene
Test: B2M reactivation by 5-azadC in cells silenced by ELXR5-ZIM3 or CasX 491 (Example 12)
Settings: 0 μM to 20 μM 5-azadC; B2M-targeting gRNA

## Nc1ncn([C@H]2C[C@H](O)[C@@H](CO)O2)c(=O)n1 [5-azadC, 5-aza-2′-deoxycytidine, reference compound]
  reactivation of the B2M gene upon 5-azadC treatment: reactivation of the B2M gene
